These are literature values, as cited in US20160296513A1 (Teva Pharmaceutical Industries Ltd., priority 2013, published 2016).

For data set [1] the following is noted: in vivo.
Data set [2] relates to genes related to antigen presentation and corresponding inflammatory pathways. The following applies: mainly via the NFkB pathway.
In data set [3] the test system is MS.
Data set [4] has as its system relapsing-remitting multiple sclerosis (RRMS). Conditions: CARE-MS I, vs interferon beta-1a.
Data set [5] concerns first-line treatment-refractory RRMS. The following applies: CARE-MS II.
Data set [6] concerns multiple sclerosis patients. Conditions: human, in vivo.

Take `CCN(C(=O)c1c(O)c2c(Cl)cccc2n(C)c1=O)c1ccccc1` [Laquinimod, 5-chloro-N-ethyl-4-hydroxy-1-methyl-2-oxo-N-phenyl-1,2-dihydroquinoline-3-carboxamide]: the oral bioavailability result in data set [1] is recorded as “high”. In addition, in data set [2], the “suppression of genes related to antigen presentation and corresponding inflammatory pathways” value was “induced suppression”. Moreover, in data set [3] (in MS), the “neurodegeneration and non-relapse-dependent disability progression” value is “showed potential for slowing neurodegeneration and reducing non-relapse-dependent disability progression”. For the same compound, in data set [3] (unexplained by inflammatory markers), the “Confirmed Disease Progression (CDP)” value is “sustain Confirmed Disease Progression (CDP)”.

On to “Alemtuzumab: recombinant DNA-derived humanized monoclonal IgGlx antibody raised against CD52”, for which the relapse entry in data set [4] (12 mg/day IV 5 days at Month 0, 3 days at Month 12) is “reduction of relapse”. Also, the disability endpoints entry in data set [4] is listed as “did not show benefit”. In data set [5], the accumulation of disability entry is reported as “sustain accumulation of disability” and the relapse rates entry was “reduce relapse rates”. Besides, in data set [6], the “depletion repletion pattern for T cells, B cells and monocytes” value is reported as “well characterized depletion repletion pattern”; the “effect on inflammatory axis” value was “large and sustained”.
